Laboratory results: patent publication US20060084790A1, “P-Rex1, a ptdins (3,4,5) p3-g-beta-gamma-regulated guanine-nucleotide exchange factor for rac” (The Babraham Institute, priority 2002, published 2006)

Key:
recombinant human P-Rex1 = target: T1, recombinant human P-Rex1 (Homo sapiens, UniProt Q8TCU6, A1118T/K1340E); experiment: Rac-GEF assay for recombinant P-Rex1 ([35S]-GTPγS loading of EE-Rac1, liposomes); format: biochemical
T1 construct: made in house; host or cells: Sf9 cells (baculovirus, pAc0G1 vector)
T1 sequence (Q8TCU6 whole entry A1118T/K1340E): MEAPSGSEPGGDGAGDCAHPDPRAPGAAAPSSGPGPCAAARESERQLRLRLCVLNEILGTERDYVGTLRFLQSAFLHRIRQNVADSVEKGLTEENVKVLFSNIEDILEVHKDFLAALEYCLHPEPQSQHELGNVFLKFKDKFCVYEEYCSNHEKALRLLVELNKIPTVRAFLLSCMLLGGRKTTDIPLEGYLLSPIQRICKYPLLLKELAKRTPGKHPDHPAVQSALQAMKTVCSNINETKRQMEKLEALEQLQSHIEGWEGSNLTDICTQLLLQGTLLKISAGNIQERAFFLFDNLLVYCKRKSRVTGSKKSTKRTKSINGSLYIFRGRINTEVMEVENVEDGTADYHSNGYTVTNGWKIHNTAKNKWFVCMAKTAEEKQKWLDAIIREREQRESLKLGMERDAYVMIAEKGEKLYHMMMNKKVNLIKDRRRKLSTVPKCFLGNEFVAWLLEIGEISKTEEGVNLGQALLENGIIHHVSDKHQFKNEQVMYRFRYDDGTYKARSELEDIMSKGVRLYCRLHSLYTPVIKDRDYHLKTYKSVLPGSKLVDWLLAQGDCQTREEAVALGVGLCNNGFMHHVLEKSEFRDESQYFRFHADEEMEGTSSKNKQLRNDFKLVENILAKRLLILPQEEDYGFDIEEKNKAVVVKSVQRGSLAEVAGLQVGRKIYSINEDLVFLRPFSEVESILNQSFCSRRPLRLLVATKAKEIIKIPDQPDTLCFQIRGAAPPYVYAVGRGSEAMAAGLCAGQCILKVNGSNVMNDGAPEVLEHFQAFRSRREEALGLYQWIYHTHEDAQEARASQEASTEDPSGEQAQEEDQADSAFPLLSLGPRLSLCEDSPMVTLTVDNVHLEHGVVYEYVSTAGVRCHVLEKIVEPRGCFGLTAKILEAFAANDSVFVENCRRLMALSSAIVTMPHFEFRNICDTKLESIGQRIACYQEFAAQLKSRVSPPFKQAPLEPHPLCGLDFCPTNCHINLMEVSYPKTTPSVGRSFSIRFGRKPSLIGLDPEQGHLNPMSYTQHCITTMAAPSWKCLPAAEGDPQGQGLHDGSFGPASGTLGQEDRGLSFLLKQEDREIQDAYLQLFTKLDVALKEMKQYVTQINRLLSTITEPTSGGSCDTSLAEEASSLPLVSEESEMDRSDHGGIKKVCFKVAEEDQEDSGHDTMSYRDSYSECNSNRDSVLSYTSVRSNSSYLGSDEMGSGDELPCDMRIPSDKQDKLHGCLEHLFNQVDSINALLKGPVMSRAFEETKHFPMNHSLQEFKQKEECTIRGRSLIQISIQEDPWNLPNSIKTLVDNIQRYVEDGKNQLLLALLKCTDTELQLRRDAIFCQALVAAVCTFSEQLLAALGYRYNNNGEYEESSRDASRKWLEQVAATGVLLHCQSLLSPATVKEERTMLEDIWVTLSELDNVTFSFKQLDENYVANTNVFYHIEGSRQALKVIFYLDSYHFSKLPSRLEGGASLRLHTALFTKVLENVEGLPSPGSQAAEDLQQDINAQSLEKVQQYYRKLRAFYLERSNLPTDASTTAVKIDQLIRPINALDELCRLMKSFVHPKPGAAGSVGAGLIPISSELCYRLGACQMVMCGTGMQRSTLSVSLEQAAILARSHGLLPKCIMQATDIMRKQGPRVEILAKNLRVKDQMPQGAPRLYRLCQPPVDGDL
Protocol: Liposomes (phosphatidylcholine (PtdCho), phosphatidylserine (PtdS), phosphatidylinositol (PtdIns), final assay concentration 200 μM each) were sonicated in lipid buffer (20 mM Hepes/NaOH pH 7.5 (4° C.), 100 mM NaCl, 1 mM EGTA) with or without PtdIns(3,4,5)P3 (final assay concentration 10 μM) and incubated for 10 min on ice with 2 μl of purified, GDP-loaded, recombinant, lipid-modified EE-Rac1 in 5 mM MgCl2, 50 mg/ml BSA, 5 mM DTT, 20 mM Hepes/NaOH pH 7.5 (4° C.), 100 mM NaCl, 1 mM EGTA (final assay concentration 100 nM EE-Rac1, 0.0024% cholate). Then 4 μl of Rac-GEF activity (cytosol, column fractions, or recombinant P-Rex1) was added, followed by 2 μl of GTPγS (in lipid buffer, final assay concentration 5 μM, including 1 μCi [^35S]-GTPγS). After 10 min at 30° C., the reaction was stopped and EE-Rac1 pulled down using anti-EE antibodies coupled to protein G-sepharose, and [^35S]-GTPγS-loading of Rac was detected by scintillation β-counting. Recombinant P-Rex1 was diluted in ‘buffer A’ (20 mM Hepes/NaOH pH 7.5 (4° C.), 1% betaine, 0.01% Na azide, 0.5 mM EGTA, 200 mM KCl, 10% ethylene glycol) to a final assay concentration of 50 nM. In assays with Gβγ, 2 μl of Gβγ in ‘buffer A’ were added to the liposome/Rac mix before the 10 min on ice, and P-Rex1 was added as 5×.

[1] = Inositol polyphosphate 4-phosphatase (lipid phosphatase) assay; format: biochemical; conditions: P-Rex1 up to 1.45 μM
PAE cells = experiment: Immunofluorescence microscopy of lamellipodia formation in myc-P-Rex1 transfected PAE cells; format: cell-based, pig
Protocol: Pig aortic endothelial (PAE) cells were transiently transfected with pCMV3-myc-P-Rex1 or pCMV3-myc-DAPP1 by electroporation, grown on coverslips for 10 h and then serum starved for 8 h. They were then treated or not with 100 nM wortmannin for 10 min followed by stimulation with varying doses of PDGF for 5 min. Cells were fixed and prepared for immunofluorescence microscopy by staining of P-Rex1 and DAPP1 with anti-myc epitope-tag primary and FITC-goat anti-mouse secondary antibodies and filamentuous actin with TRITC-phalloidin as previously described (Welch et al. 1998).

[2] = Protein phosphatase assay with para-nitrophenolphosphate; format: biochemical; conditions: P-Rex1 up to 192 nM
Description: We also used para-nitrophenolphosphate as a broad-spectrum substrate in a protein phosphatase assay, using calf intestinal alkaline phosphatase and MEG-2 tyrosine phosphatase as controls.

P-Rex1 = experiment: Surface plasmon resonance (Biacore) binding of P-Rex1 to phospholipid vesicles; parameters: species or system human; conditions: 6 mol-% phosphoinositide; 100 nM P-Rex1; FIG. 5C
Chain of P-Rex1 (Q8TCU6 whole entry A1118T/K1340E): as above
Protocol: Assays were conducted as described (Ellson et al. 2001), using mixed phospholipid vesicles (PtdCho, PtdS, phosphatidylethanolamine (PtdE), 330 μM each final concentration) with or without added phosphoinositides (6 mol-% final concentration) to load the L1 vesicle capture chip (Biacore) prior to the injection of 100 nM purified recombinant Sf9-cell derived P-Rex1.

[3] = tested on: neutrophil cytosol and low-density membranes (ROS formation); experiment: ROS formation assay with neutrophil cytosol and membrane fractions; format: biochemical, pig; conditions: added as liposomes, biological diastereoisomer; FIG. 1B
Protocol: Neutrophil-enriched leukocytes were isolated from pigs' blood, sonicated in 0.25 M sucrose, 0.1 M KCl, 50 mM Hepes/NaOH pH 7.2 (4° C.), 1 mM DTT, 2 mM EGTA, 0.1 mM PMSF and 1× antiproteases (20 μg/ml of each antipain, aprotinin, pepstatin and leupetin) and centrifuged (100,000×g, 1 h, 4° C.) to yield cytosol and light membrane fractions (4.5 mg/ml protein, collected between 0.60 and 1.35 M sucrose and washed in sonication buffer). Light membranes (3 μl) were pre-mixed with Gβγ subunits, p101/p110γ-PI3K and/or N17-Rac (or boiled controls) in 6 μl containing 5 mM ATP, 8 mM MgCl2, 20 mM Hepes/NaOH pH 7.5 (4° C.), 2 mM EGTA, 10 mM β-glycerophosphate, 0.1 mM ortho-vanadate, 0.1 M KCl, 1 mM DTT, 0.01% (w/v) Na azide. After 25 min on ice, 20 μl was added containing 15 μl cytosol and 1 mM MgGTP, 20 μM FAD, 400 μM NADPH and 200 μM luminol. After 8 min at RT, single photon counts (SPC) per 0.1 min were quantitated in a scintillation counter at intervals of 3-5 min for up to 20 min (blanks without cytosol were subtracted). When lipids were added, they were preincubated with the membranes, and 10 μM GTPγS replaced MgGTP. Where wortmannin was added, it was preincubated with both cytosol and membrane fractions for 15 min on ice. Where EE-Rac1 was added, it was preloaded with different guanine nucleotides at a 5-fold excess over bound GDP.

EE-Rac1 = experiment: Rac-GEF assay with neutrophil cytosol and membrane fractions; format: biochemical; conditions: PtdIns(3,4,5)P3 alone (30 μM); FIG. 1C
Protocol: This assay was essentially as for ROS production, except pure, lipid-modified EE-Rac1 (30-50 nM final concentration) was added to the cytosol, and GTP, GTPγS, NADPH, FAD and luminol omitted. Three min after mixing membrane and cytosol fractions, [α^32P]-GTP (20 μCi per sample) was added. Four min later, the reaction was stopped and EE-Rac1 pulled down using anti-EE antibody coupled to protein G sepharose. The total dpm on EE-Rac1 were quantified by scintillation counting (blanks without EE-Rac1 were subtracted).

In the case of `C[C@H](CCC(=O)O)[C@H]1CC[C@H]2[C@@H]3[C@H](O)C[C@@H]4C[C@H](O)CC[C@]4(C)[C@H]3C[C@H](O)[C@]12C` [cholate], the “effect on P-Rex1 Rac-GEF activity in vitro” value (recombinant human P-Rex1; FIG. 5D, 5E) is reported as “strongly inhibits”.
In the case of “P-Rex1: novel 185 kD PtdIns(3,4,5)P3- and Gβγ-regulated guanine-nucleotide exchange factor for Rac (SEQ ID NO:1)”, the lipid phosphatase activity [1] is reported as “no lipid or protein phosphatase activity”, the “myc-positive cells with strongly exaggerated lamellipodia ('fried eggs', V12-Rac-like phenotype)” value (PAE cells; serum-starved, unstimulated cells transiently expressing myc-P-Rex1) is reported as “around 30%” and the protein phosphatase activity [2] is reported as “no lipid or protein phosphatase activity”.
In the case of PDGF, the “P-Rex1-positive cells exhibiting the V12-Rac-like phenotype” value (PAE cells; PDGF-stimulation for 5 min) is reported as 80%.
For PtdIns3P, the “P-Rex1 binding to phospholipid vesicles containing the phosphoinositide” value (from here on “P-Rex1 binding”) (P-Rex1) was “only weakly”.
For PtdIns4P, the “P-Rex1 binding” value (P-Rex1) was “only weakly”.
For PtdIns5P, the “P-Rex1 binding” value (P-Rex1) was “only weakly”.
In the case of PtdIns(3,4)P2, the “activation of P-Rex1 Rac-GEF activity by phosphoinositide” value (recombinant human P-Rex1; phosphoinositides compared at 10 μM, FIG. 5B) is reported as “weak activation”.
With PtdIns(3,5)P2 the “P-Rex1 binding” value (P-Rex1) was “only weakly”.
With PtdIns(4,5)P2 the “P-Rex1 binding” value (P-Rex1) was “only weakly”.
In the case of “phosphatidylinositol(3,4,5)P3 [PtdIns(3,4,5)P3]”, the “P-Rex1 binding” value (P-Rex1) is reported as “substantially augmented”, the “activation of ROS formation” value [3] is reported as “potently activate” and the “activation of Rac1” value (EE-Rac1) is reported as “stimulated activation”. For the same compound, the EC50 (recombinant human P-Rex1; liposomes with PtdIns(3,4,5)P3 dose response, EE-Rac1, FIG. 5A, read-out: 50% maximal effect on Rac-GEF activity of P-Rex1) was 300 nM.
